# Assay type: physicochemical
# Details: temperature in which 50 mg of substance is dissolved in 1 ml of a 1:4 benzyl benzoate/castor oil mixture; lower temperature = better solubility
row,Compound,Solubility
1,"(Z)-6′-(4-Cyanophenyl)-9,11α-dihydro-17α-[3-[[[[(1,1-dimethylethoxy)carbonyl]-amino]acetyl]oxy]-1-propenyl]-17βhydroxy-4′H-naphtho[3′,2′,1′:10,9,11]estr-4-en-3-one [Example 13]",50 °C
2,"CC(C)C(=O)OC/C=C\[C@]1(O)CC[C@H]2[C@@H]3CCC4=CC(=O)CC[C@@]45Cc4cc(-c6ccc(C#N)cc6)ccc4[C@@H](C[C@@]21C)[C@@H]35 [Example 6, (Z)-6′-(4-Cyanophenyl)-9,11α-dihydro-17β-hydroxy-17α-[3-(1-oxo-2-methylpropoxy)-1-propenyl]-4′H-naphtho[3′,2′,1′:10,9,11]estr-4-en-3-one]",100 °C
3,"CN(C)c1ccc(C2CC3(C)C(CCC3(O)CCCOC(=O)CNC(=O)OC(C)(C)C)C3CCC4=CC(=O)CCC4=C23)cc1 [Example 36, (S)-11β-[4-(Dimethylamino)phenyl]-17β-[3-[[[(1,1-dimethylethoxy)carbonyl]amino]acetyloxy]propyl]-17α-hydroxy-13α-estra-4,9-dien-3-one]",23 °C
4,"6′-(4-Fluorophonyl)-17α-(3-hydroxyprop-1-inyl)-9,11α-dihydro-17β-hydroxy-4′H-naphtho[3′,2′,1′:10,9,11]estr-4-on-3-one [Ref. 5, reference compound]",23 °C
5,"[S-(Z)]-6′-(4-Fluorophenyl)-9,11α-dihydro-17α-[3-[2-[[(1,1-dimethylethoxy)carbonyl]amino]-1-oxopropoxy]-1-propenyl]-17β-hydroxy-4′H-naphtho[3′,2′,1′:10,9,11]estr-4-en-3-one [Example 41]",23 °C
6,"[S-(Z)]-17α-[3-(2-Amino-3-methyl-1-oxobutoxy)-1-propenyl]-6′-(4-cyanophenyl)-9,11α-dihydro-17β-hydroxy-4′H-naphtho[3′,2′,1′:10,9,11]estr-4-en-3-one [Example 16]",100 °C
7,"[S-(Z)]-9,11α-Dihydro-17α-[3-[2-[[(1,1-dimethylethoxy)carbonyl]amino]-3-methyl-1-oxobutoxy]-1-propenyl]-17βhydroxy-6′-(3-pyridinyl)-4′H-naphtho[3′,2′,1′:10,9,11]estr-4-en-3-one [Example 25]",50 °C
8,"CC(NC(=O)OC(C)(C)C)C(=O)OCCCC1(O)CCC2C3CCC4=CC(=O)CCC4=C3C(c3ccc(N(C)C)cc3)CC21C [Example 27, (S)-11β-[4-(Dimethylamino)phenyl]-17β-[3-[2-[[(1,1-dimethylethoxy)-carbonyl]amino]-1-oxopropoxy]propyl]-17α-hydroxy-13α-estra-4,9-dien-3-one]",23 °C
9,"CC(NC(=O)OC(C)(C)C)C(=O)OCC=CC1(O)CCC2C3CCC4=CC(=O)CCC4C3C(c3ccc(-c4ccc(C#N)cc4)cc3)CC21C (stereo not drawn) [Example 33, [S-(z)]-4′-[17α-[3-[2-[[(1,1-Dimethylethoxy)carbonyl]amino]-1-oxopropoxy]-1-propenyl]-17β-hydroxy-3-oxoestr-4-en-11β-yl][1,1′-biphenyl]-4-carbonitrile]",50 °C
10,"CCCCCCC(=O)OCC=CC1(O)CCC2C3CCC4=CC(=O)CCC45Cc4cc(-c6cccnc6)ccc4C(CC21C)C35 (stereo not drawn) [Example 20, (Z)-9,11α-Dihydro-17βhydroxy-17α-[3-[(1-oxoheptyl)oxy]-1-propenyl]-6′-(3-pyridinyl)-4′H-naphtho[3′,2′,1′:10,9,11]estr-4-en-3-one]",50 °C
11,"CCOCCC(=O)OCC=CC1(O)CCC2C3CCC4=CC(=O)CCC45Cc4cc(-c6ccc(C#N)cc6)ccc4C(CC21C)C35 (stereo not drawn) [Example 11, (Z)-6′-(4-Cyanophenyl)-9,11α-dihydro-17α-[3-(3-ethoxy-1-oxopropoxy)-1-propenyl]-17βhydroxy-4′H-naphtho[3′,2′,1′:10,9,11]estr-4-en-3-one]",100 °C
12,"(Z)-9,11α-Dihydro-17α-[3-(1,4-dioxo-4-ethoxybutoxy)-1-propenyl]-17β-hydroxy-6′-(3-pyridinyl)-4′H-naphtho[3′,2′,1′:10,9,11]estr-4-en-3-one [Example 22]",50 °C
13,"[S-(Z)]-9,11α-Dihydro-17α-[3-[[[(1,1-dimethylethoxy)carbonyl]amino]acetyloxy]-1-propenyl]-17β-hydroxy-6′-(3-pyridinyl)-4′H-naphtho[3′,2′,1′:10,9,11]estr-4-en-3-one [Example 35]",23 °C
14,"CC(C)(C)OC(=O)NCC(=O)OCC=CC1(O)CCC2C3CCC4=CC(=O)CCC4C3C(c3ccc(-c4ccc(C#N)cc4)cc3)CC21C (stereo not drawn) [Example 38, [S-(Z)]-4′-[17α-[3-[[[(1,1-Dimethylethoxy)carbonyl]-amino]acetyloxy]-1-propenyl]-17β-hydroxy-3-oxoestr-4-en-11β-yl][1,1′-biphenyl]-4-carbonitrile]",23 °C
15,"COC(=O)CCC(=O)OCC=CC1(O)CCC2C3CCC4=CC(=O)CCC45Cc4cc(-c6ccc(C#N)cc6)ccc4C(CC21C)C35 (stereo not drawn) [Example 9, (Z)-6′-(4-Cyanophenyl)-9,11α-dihydro-17α-[3-(1,4-dioxo-4-methoxybutoxy)-1-propenyl]-17β-hydroxy-4′H-naphtho[3′,2′,1′:10,9,11]estr-4-en-3-one]",50 °C
16,"CN(C)c1ccc(C2CC3(C)C(CCC3(O)C=CCOC(=O)CNC(=O)OC(C)(C)C)C3CCC4=CC(=O)CCC4C23)cc1 (stereo not drawn) [Example 37, [S-(Z)]-11β-[4-(Dimethylamino)phenyl]-17α-[3-[[[(1,1-dimethylethoxy)carbonyl]amino]acetyloxy]-1-propenyl]-17β-hydroxyestr-4-en-3-one]",23 °C
17,"[S-(Z)]-17α-[3-(2-Amino-1-oxopropoxy)-1-propenyl]-6′-(4-fluorophenyl)-9,11α-dihydro-17β-hydroxy-4′H-naphtho[3′,2′,1′:10,9,11]estr-4-en-3-one [Example 40]",50 °C
18,"(Z)-6′-(4-Fluorophenyl)-17α-(3-hydroxyprop-1-enyl)-9, 11α-dihydro-17β-hydroxy-4′-naphtho]3′,2′,1′:10,9,11]estr-4-en-3-one [Ref. 4, reference compound]",100 °C
19,"[S-(Z)]-6′-(4-Cyanophenyl)-9,11α-dihydro-17α-[3-[2-[[(1,1-dimethylethoxy)carbonyl]amino]-3-methyl-1-oxobutoxy]-17β-hydroxy-4′H-naphtho[3′,2′,1′:10,9,11]estr-4-en-3-one [Example 17]",50 °C
20,"CC(C)C(N)C(=O)OCC=CC1(O)CCC2C3CCC4=CC(=O)CCC4C3C(c3ccc(-c4ccc(C#N)cc4)cc3)CC21C (stereo not drawn) [Example 39, [S-(Z)]-4′-[17α-[3-[2-Amino-3-methyl-1-oxobutoxy]-1-propenyl]-17β-hydroxy-3-oxoestr-4-en-11β-yl][1,1′-biphenyl]-4-carbonitrile]",50 °C
21,"CC(C)C(NC(=O)OC(C)(C)C)C(=O)OCC=CC1(O)CCC2C3CCC4=CC(=O)CCC4C3C(c3ccc(-c4ccc(C#N)cc4)cc3)CC21C (stereo not drawn) [Example 34, [S-(Z)]-4′-[17α-[3-[2-[[(1,1-Dimethylethoxy)carbonyl]amino]-3-methyl-1-oxobutoxy]-1-propenyl]-17β-hydroxy-3-oxoestr-4-en-11β-yl][1,1′-biphenyl]-4-carbonitrile]",50 °C
22,"C[C@]12C[C@@H]3c4ccc(-c5cccnc5)cc4C[C@]45CCC(=O)C=C4CC[C@H]([C@H]35)[C@@H]1CC[C@@]2(O)/C=C\CO [Ref. 2, (Z)-9,11α-dihydro-17β-hydroxy-17α-(3-hydroxy-1-propenyl)-6′-(3-pyridinyl)-4′H-naphtho[3′,2′,1′:10,9,11]estr-4-en-3-one, reference compound]",>>100 °C
23,"6′-(4-Fluorophenyl)-17α-(3-hydroxypropyl)-9,11α-dihydro-17β-hydroxy-4′H-naphtho[3′,2′,1′:10,9,11]estr-4-en-3-one [Ref. 6, reference compound]",23 °C
24,"(S)-6′-(4-Fluorophanyl)-9,11α-dihydro-17α-[3-[2-[[(1,1-dimethylethoxy) carbonyl]amino]-1-oxopropoxy]-1-propyl]-17β-hydroxy-4′H-naphtho[3′,2′,1′:10,9,11]estr-4-on-3-one [Example 43]",23 °C
25,"CC12CC3c4ccc(-c5ccc(C#N)cc5)cc4CC45CCC(=O)C=C4CCC(C35)C1CCC2(O)C=CCO (stereo not drawn) [Ref. 1, (Z)-6′-(4-cyanophenyl)-9,11α-dihydro-17β-hydroxy-17α-(3-hydroxy-1-propenyl)-4′H-naphtho[3′,2′,1′:10,9,11]estr-4-en-3-one, reference compound]",>>100 °C
26,"(Z)-6′-(4-Cyanophenyl)-9,11α-dihydro-17α-[3-(1,4-dioxo-4-ethoxybutoxy)-1-propenyl]-17β-hydroxy-4′H-naphtho[3′,2′,1′:10,9,11]estr-4-en-3-one [Example 10]",50 °C
27,"(S)-6′-(4-Fluorophanyl)-9,11α-dihydro-17α-[3-[2-[[(1,1-dimethylethoxy)carbonyl]amino]-1-oxopropoxy]-1-propinyl]-17β-hydroxy-4′H-naphtho[3′,2′,1′;10,9,11]estr-4-en-3-one [Example 42]",23 °C
28,"CC(C)C(NC(=O)OC(C)(C)C)C(=O)OCC=CC1(O)CCC2C3CCC4=CC(=O)CCC4C3C(c3ccc(N(C)C)cc3)CC21C (stereo not drawn) [Example 32, [S-(Z)]-11β-[4-(Dimethylamino)phenyl]-17α-[3-[2-[(1,1-dimethylethoxy)carbonyl]amino]-3-methyl-1-oxobutoxyl]-1-propenyl]-17β-hydroxyestr-4-en-3-one]",23 °C
29,"(Z)-6′-(4-Cyanophenyl)-9,11α-dihydro-17β-hydroxy-17α-[3-[(1-oxopentyl)oxy]-1-propenyl]-4′H-naphtho[3′,2′,1′:10,9,11]estr-4-en-3-one [Example 2]",50 °C
30,"(Z)-6′-(4-Cyanophenyl)-17α-[3-(3-cyclopentyl-1-oxopropoxy)-1-propenyl]-9,11α-dihydro-17β-hydroxy-4′H-naphtho[3′,2′,1′:10,9,11]estr-4-en-3-one [Example 8]",23 °C
